From patent publication US20100093760A1, “METHODS FOR IDENTIFYING COMPOUNDS THAT MODULATE CELL SIGNALING AND METHODS EMPLOYING SUCH COMPOUNDS” (The General Hospital Corporation, priority 2006, published 2010)
Entries after “also recorded” stand apart in the source; their conditions may differ. Like-named read-outs stand apart in the source and are kept apart here.

Key:
[1] = tested on: zebrafish embryos; format: in vivo; details: for phenotype: 8 ng of either morpholino alone, 24 hpf; for % Dorsalized / Dorsalized, number of embryos / Early lethality, number of embryos / Total survivors: treatment at 3 hpf
[2] = tested on: zebrafish embryos; format: in vivo; details: zebrafish, in vivo
Description: According to one example of the whole animal-based screening methods of the invention, 1-2 hour old zebrafish embryos are arrayed in the wells of 96-well plates, three embryos per well. A chemical library, which is comprised of tens of thousands of diverse small molecules, is then pin-transferred into the wells at a final concentration of ˜2 to 10 uM. Embryos are observed over the course of next 24-48 hours and scored under a dissecting microscope for phenotype consistent with loss of BMP signaling (dorsalized embryos, FIG. 1) or with the loss of nodal signaling (cyclopia, FIG. 2).
Small molecule screening in zebrafish was performed as previously described (Peterson et al., Nat. Biotechnol. 22:595-599, 2004) with several modifications. Pairs of wild-type zebrafish were mated, and newly-fertilized eggs were arrayed in triplicate in 96-well plates containing E3 buffer. At 4 hours post fertilization (hpf), compounds were added to wells at 5-10 μM. Embryos were incubated at 28.5° C., and gross morphology of embryos was examined at 12, 24, and 48 hpf for dorsalization or ventralization of embryonic axis, as previously described (Mullins et al., Development 123:81-93, 1996). In total, 7,570 compounds were screened, including synthetic screening compounds (Chembridge Corporation, 5,580 small molecules) and known bioactive compounds (Microsource Discovery Systems, 1,840 small molecules and Sigma-Aldrich, 150 small molecules). For follow up studies, Compound C/Dorsomorphin and Ara-A (adenine 9-β-D-arabinofurano-side) were purchased from Sigma (St. Louis, Mo.), and C75 was purchased from EMD Biosciences (San Diego, Calif.).

[3] = tested on: hepcidin (HAMP) and Id1 mRNA; test: Hepcidin and Id1 mRNA qRT-PCR in Hep3B cells; format: cell-based, human
Description: Quantitative RT-PCR was performed for mRNA encoding Id1 or human hepcidin (HAMP) as previously described (Babitt et al., Nat. Genet. 38:531-539, 2006; Yu et al., J. Biol. Chem. 280:24443-24450, 2005), and normalized to 18S ribosomal RNA (rRNA) or β-actin mRNA levels.

[4] = tested on: BMP-mediated SMAD1/5/8 phosphorylation; test: Immunoblot of BMP-induced SMAD1/5/8 phosphorylation in PASMCs; format: cell-based, murine; details: PASMCs, noggin 100-200 ng/ml pretreatment 30 minutes
Description: Wild-type and BMPR-II-deficient PASMC were isolated as previously described (Yu et al., J. Biol. Chem. 280:24443-24450, 2005), and cultured in RPMI medium (Invitrogen) supplemented with 10% FBS. C2C12 cells (American Type Culture Collection, Manassas, Va.) were cultured in DMEM supplemented with glutamine and 10% FBS. HepG2 cells and Hep3B cells (ATCC) were cultured in Minimal Essential Alpha Medium with L-glutamine (α-MEM, Invitrogen) containing 10% FBS. For studies of SMAD activation in vitro, PASMC were incubated in 0.5% FCS RPMI for 24 hours, followed by preincubation with drug compounds, noggin, or vehicle for 30 minutes, followed the addition of recombinant BMPs 2, 4, 6, or 7, or TGF-β1 or Activin A (R&D Systems, Minneapolis, Minn.) for 30 minutes.
Cell extracts or tissues were mechanically homogenized in SDS-lysis buffer (62.5 mM Tris-HCl (pH 6.8), 2% SDS, 10% glycerol, 50 mM DTT, 0.01% bromophenol blue); separated by SDS-PAGE; immunoblotted with anti-phospho-SMAD1/5/8, anti-phospho-SMAD2 (Cell Signaling, Beverly, Mass.), or anti-α-tubulin (Upstate/Millipore, Billerica, Mass.) Abs; and visualized using ECL Plus (GE Healthcare, Piscataway, N.J.). Levels of immunoreactive proteins were quantitated by ImageQuant software on a Storm phosphorimager (GE Healthcare).
The statistical significance of compared measurements was measured using the student's two-tailed T-test or one-way ANOVA with Bonferroni correction. Hill plot analysis of Compound C/Dorsomorphin inhibition of SMAD1/5/8 phosphorylation was performed using GraFit software (Erithacus Software, Surrey, England).

[5] = tested on: MAPK p38; test: Immunoblot of BMP4-mediated MAPK p38 phosphorylation in PASMCs; format: cell-based, murine; details: noggin 100-200 ng/ml pretreatment 30 minutes

## NC(=O)c1ccc(-c2nc(-c3ccc4c(c3)OCO4)c(-c3ccccn3)[nH]2)cc1 [SB-431542, reference compound]
[1]; known specific inhibitor of the TGF-β/activin/nodal branch
  zebrafish embryo phenotype: cyclopia, but not dorsalization

## Nc1ncnc2c1ncn2[C@@H]1O[C@H](CO)[C@@H](O)[C@@H]1O [Ara-A, adenine 9-β-D-arabinofurano-side, reference compound]
[2]
  dorsalization by structurally-unrelated inhibitors of AMPK activity: did not dorsalize zebrafish embryos
  toxicity of structurally-unrelated inhibitors of AMPK activity: non-specific toxicity such as developmental delay and death
[3]; Ara-A 250 μM 30 minutes before BMP4 20 ng/ml
  effect on BMP4-induced hepcidin mRNA expression: did not impair; also recorded: did not significantly affect
[3]; Ara-A 250 μM alone
  lowering of baseline hepcidin expression: 40%

## αA: splice-targeting morpholino against zebrafish AMPK α-subunit ortholog αA (CACCCTGGAAAGTT TTACCTTTGAC) (antisense CACCCTGGAAAGTTTTACCTTTGAC; all phosphorodiamidate morpholino (PMO)) [reference compound]
[1]
  phenotype: did not exhibit any phenotype

## C=C1C(=O)OC(CCCCCCCC)C1C(=O)O (stereo not shown) [Compound C75, reference compound]
[2]
  dorsalization by structurally-unrelated inhibitors of AMPK activity: did not dorsalize zebrafish embryos
  toxicity of structurally-unrelated inhibitors of AMPK activity: non-specific toxicity such as developmental delay and death
[1]; C75 4 μM
  % Dorsalized: 0%
  Dorsalized, number of embryos: 0
  Early lethality, number of embryos: 0
  Total survivors: 20
[1]; C75 20 μM
  % Dorsalized: 0%
  Dorsalized, number of embryos: 0
  Early lethality, number of embryos: 0
  Total survivors: 40
[1]; C75 40 μM
  % Dorsalized: 0%
  Dorsalized, number of embryos: 0
  Early lethality, number of embryos: 0
  Total survivors: 40
[1]; C75 100 μM
  % Dorsalized: 0%
  Dorsalized, number of embryos: 0
  Early lethality, number of embryos: 20
  Total survivors: 0
[1]; C75 200 μM
  % Dorsalized: 0%
  Dorsalized, number of embryos: 0
  Early lethality, number of embryos: 40
  Total survivors: 0
[1]; C75 400 μM
  % Dorsalized: 0%
  Dorsalized, number of embryos: 0
  Early lethality, number of embryos: 40
  Total survivors: 0
[1]; C75, any concentration tested (1-100 μg/ml), from 3 hpf
  dorsalization phenotype: without evidence of dorsalization

## αB: splice-targeting morpholino against zebrafish AMPK α-subunit ortholog αB (TAAATGAACA GACTTAACTCTTCAC) (antisense TAAATGAACAGACTTAACTCTTCAC; all phosphorodiamidate morpholino (PMO)) [reference compound]
[1]
  phenotype: did not exhibit any phenotype

B1: noggin: soluble BMP antagonist; preferential inhibitor of BMP2 and BMP4 activity (protein, UniProt Q13253 28-232, looked up)
Noggin: QHYLHIRPAPSDNLPLVDLIEHPDPIFDPKEKDLNETLLRSLLGGHYDPGFMATSPPEDRPGGGGGAAGGAEDLAELDQLLRQRPSGAMPSEIKGLEFSEGLAQGKKQRLSKKLRRKLQMWLWSQTFCPVLYAWNDLGSRFWPRYVKVGSCFSKRSCSVPEGMVCKPSKSVHLTVLRWRCQRRGGQRCGWIPIQYPIISECKCSC
[4]
  effect on BMP4-mediated phosphorylation of SMAD1/5/8: inhibited
[5]
  effect on BMP4-mediated phosphorylation of MAPK p38: inhibited

B2: BMP4: recombinant bone morphogenetic protein ligand (R&D Systems) (protein, UniProt P12644 293-408, looked up)
Bone morphogenetic protein 4: SPKHHSQRARKKNKNCRRHSLYVDFSDVGWNDWIVAPPGYQAFYCHGDCPFPLADHLNSTNHAIVQTLVNSVNSSIPKACCVPTELSAISMLYLDEYDKVVLKNYQEMVVEGCGCR
[3]; BMP4 20 ng/ml, four hours
  increase in hepcidin mRNA: 35 fold
